Assay results from PMC10700347, “Semisynthesis of 5-O-ester derivatives of renieramycin T and their cytotoxicity against non-small-cell lung cancer cell lines” (Scientific Reports, 2023).
Read-outs that look alike come from different tables or passages of the source.

Key:
Type in all cases: cell-based
[1] = test system: dermal papilla (DP) cell line; experiment: MTT cell viability on normal cell line DP; settings: 72 h
Method: (§1) DP and BEAS-2B were seeded into 96-well plates at densities of 1 × 10^4 cells per well, while HaCaT cells were seeded at densities of 5 × 10^3 cells per well. The cells were allowed to adhere for 24 h. Subsequently, the cells were treated with various concentrations of compounds 3a–3o, 4a, and 4b at 72 h for DP cells and at 24 h for HaCaT and BEAS-2B cells. After the treatment period, cells were incubated with 0.5 mg/ml of MTT for 2 h. The resulting MTT product was measured at 570 nm using a spectrophotometric microplate reader. Cell viability was calculated by comparing the optical density (OD) measurements to those of the untreated control, and the results were expressed as a percentage.

[2] = test system: non-tumorigenic bronchial epithelial (BEAS-2B) cell line; experiment: MTT cell viability on normal cell line BEAS-2B; settings: BEAS-2B normal cell line, 24 h, read-out: IC50 ± S.D. BEAS-2B
Method: as §1

[3] = test system: H292 non-small-cell lung cancer cell line; experiment: cells; settings: for IC50: H292, MTT, 72 h, read-out: IC50 ± S.D. H292
Method: (§2) The in vitro cytotoxicity of all the semisynthesized esters and their precursors against H292 and H460 human NSCLC cell lines was analyzed based on the mitochondrial dehydrogenase activity via the MTT assay[43] (Table 1). The compounds were tested at doses of 1–250 nM. Cisplatin and doxorubicin, which are the standard chemotherapeutic drugs for the treatment of NSCLC, were used as positive controls. […] However, the extended use of 1 is limited by the concerns for unwanted necrosis, which is an unprogrammed form of cell death caused by the presence of two quinone moieties. […] The IC50 values of the 5-O-ester derivatives 3a, 3b, 3d, 3h, 3i, and 3k were in the same range as the mother compound 1.
(§3) The in vitro cytotoxicity of compounds 3a–3o, 4a, and 4b was determined against the H292 and H460 NSCLC cell lines by the MTT colorimetric assay. Each compound was dissolved in DMSO to prepare a 10 mM stock solution. Both the H292 and H460 cells were cultured in RPMI 1640 medium supplemented with 2 mM L-glutamine, 10% FBS, and 100 units/mL of penicillin–streptomycin at 37 °C under 5% CO2. The NSCLC cells were trypsinized and seeded with a density of 5 × 10^3 cells/well in a 96-well plate, followed by overnight incubation. Serial dilutions of the test compounds ranging from 1 to 250 nM were prepared in the presence of DMSO (< 0.2% v/v). […] After incubation, formazan crystals were solubilized by adding 100 µL of DMSO, and their absorbance was measured at 570 nm by a spectrophotometric microtiter plate reader (PerkinElmer Victor 3 1420 Multilabel Plate Counter). Cell viability was calculated as the percentage of nontreated control cells. The mean IC50 values were obtained from three independent experiments. Each experiment was conducted in triplicate with at least five concentrations of the tested compounds. The GraphPad Prism software (version 5) was used to calculate the average IC50 and standard deviation (S.D.) values for each experiment. Cisplatin and doxorubicin were used as the positive controls, while 0.2% DMSO served as the negative control.

[4] = test system: H460 non-small-cell lung cancer cell line; experiment: cells; settings: for IC50: H460, MTT, 72 h, read-out: IC50 ± S.D. H460
Method: as §2, §3

[5] = test system: human keratinocyte (HaCaT) cell line; experiment: MTT cell viability on normal cell line HaCaT; settings: 24 h, read-out: IC50 ± S.D. HaCaT
Method: as §1

Row | Structure (SMILES) | IC50 [1] [nM] | IC50 ([2]; Homo sapiens) [nM] | IC50 ([3]; Homo sapiens, NCI-H292) [nM] | IC50 ([4]; Homo sapiens, NCI-H460) [nM] | IC50 ([5]; Homo sapiens) [nM] | Reduction in cytotoxicity against H292 [3] [fold] | Reduction in cytotoxicity against H460 [4] | IC50 [2] [nM] | IC50 [3] [nM] | IC50 [4] [nM] | IC50 [5] [nM]
1 | C/C=C(/C)C(=O)OC[C@H]1c2c(c(OC(=O)c3c[nH]c4ccccc34)c(C)c3c2OCO3)C[C@H]2[C@H]3C4=C(C[C@@H]([C@H](C#N)N12)N3C)C(=O)C(C)=C(OC)C4=O [Compound 3l] | 72.1 ± 3.01 | > 250 | 69.4 ± 1.61 | 57.9 ± 0.77 | 109 ± 6.99 | – | – | – | – | – | –
2 | C/C=C(/C)C(=O)OC[C@H]1C2=C(C[C@H]3[C@H]4C5=C(C[C@@H]([C@H](C#N)N13)N4C)C(=O)C(C)=C(OC)C5=O)C(=O)C(C)=C(OC(=O)c1cccnc1)C2=O [Compound 4b, 7-O-(3-pyridinecarbonyl) ester derivative of renieramycin S] | 67.5 ± 5.46 | > 250 | 100 ± 1.59 | 104 ± 2.2 | 192 ± 22.2 | 3 | fivefold | – | – | – | –
3 | C/C=C(/C)C(=O)OC[C@H]1c2c(c(OC(=O)[C@@H](NC(=O)OC(C)(C)C)C(C)C)c(C)c3c2OCO3)C[C@H]2[C@H]3C4=C(C[C@@H]([C@H](C#N)N12)N3C)C(=O)C(C)=C(OC)C4=O [Compound 3e] | 50 ± 1.49 | > 250 | 89.6 ± 5.03 | 76.1 ± 2.77 | 80.2 ± 4.1 | – | – | – | – | – | –
4 | N.N.[Cl][Pt][Cl] [Cisplatin, reference compound] | 10800 | – | – | – | – | – | – | > 20000 | 4230 | 3860 | 14300
5 | C/C=C(/C)C(=O)OC[C@H]1c2c(c(OC(=O)c3cnc4ccccc4c3)c(C)c3c2OCO3)C[C@H]2[C@H]3C4=C(C[C@@H]([C@H](C#N)N12)N3C)C(=O)C(C)=C(OC)C4=O [Compound 3j, 5-O-(3-quinolinecarbonyl) ester] | 37.6 ± 0.47 | > 250 | 77.8 ± 5.79 | 86.1 ± 6.34 | 109 ± 7.38 | – | – | – | – | – | –
6 | C/C=C(/C)C(=O)OC[C@H]1c2c(c(OC(=O)CNC(=O)OC(C)(C)C)c(C)c3c2OCO3)C[C@H]2[C@H]3C4=C(C[C@@H]([C@H](C#N)N12)N3C)C(=O)C(C)=C(OC)C4=O [Compound 3c] | 5.35 ± 0.27 | > 250 | 39 ± 5.63 | 41.6 ± 4.15 | 23.1 ± 1.38 | – | – | – | – | – | –
7 | C/C=C(/C)C(=O)OC[C@H]1c2c(c(OC(=O)c3ccco3)c(C)c3c2OCO3)C[C@H]2[C@H]3C4=C(C[C@@H]([C@H](C#N)N12)N3C)C(=O)C(C)=C(OC)C4=O [Compound 3m] | 25.29 ± 0.24 | > 250 | 42.5 ± 3.84 | 42.9 ± 5.21 | 42.1 ± 3.13 | – | – | – | – | – | –
8 | COc1cccc2c1C(=O)c1c(O)c3c(c(O)c1C2=O)C[C@@](O)(C(=O)CO)C[C@@H]3O[C@H]1C[C@H](N)[C@H](O)[C@H](C)O1 [Doxorubicin, reference compound] | 58 ± 24.4 | 663 | 40.8 ± 6.89 | 43.9 ± 6.26 | 915 ± 50.2 | – | – | – | – | – | –
9 | C/C=C(/C)C(=O)OC[C@H]1c2c(c(OC(=O)c3ccncc3)c(C)c3c2OCO3)C[C@H]2[C@H]3C4=C(C[C@@H]([C@H](C#N)N12)N3C)C(=O)C(C)=C(OC)C4=O [Compound 3h] | 4.83 ± 2.18 | 223 ± 23.1 | 35.3 ± 1.09 | 35.6 ± 1.64 | 53.8 ± 7.07 | – | – | – | – | – | –
10 | CC=C(C)C(=O)OCC1c2c(c(OC(C)=O)c(C)c3c2OCO3)CC2C3C4=C(CC(C(C#N)N12)N3C)C(=O)C(C)=C(OC)C4=O (stereo not shown) [Compound 3a, 5-O-acetyl renieramycin T] | 11.7 ± 0.59 | > 250 | 43.4 ± 3 | 35.7 ± 2.11 | 9.49 ± 2.12 | – | – | – | – | – | –
11 | C/C=C(/C)C(=O)OC[C@H]1c2c(c(OC(=O)c3ccccn3)c(C)c3c2OCO3)C[C@H]2[C@H]3C4=C(C[C@@H]([C@H](C#N)N12)N3C)C(=O)C(C)=C(OC)C4=O [Compound 3g] | 35.2 ± 4.13 | > 250 | 51.5 ± 1.67 | 43.6 ± 1.36 | 74.3 ± 6.88 | – | – | – | – | – | –
12 | C/C=C(/C)C(=O)OC[C@H]1c2c(c(OC(=O)[C@H](Cc3ccccc3)NC(=O)OC(C)(C)C)c(C)c3c2OCO3)C[C@H]2[C@H]3C4=C(C[C@@H]([C@H](C#N)N12)N3C)C(=O)C(C)=C(OC)C4=O [Compound 3f] | 39.8 ± 9.88 | 181 ± 12.1 | 54.1 ± 4.78 | 50.7 ± 3.5 | 61.2 ± 3.43 | – | – | – | – | – | –
13 | CC=C(C)C(=O)OCC1c2c(c(O)c(C)c3c2OCO3)CC2C3C4=C(CC(C(C#N)N12)N3C)C(=O)C(C)=C(OC)C4=O (stereo not shown) [Compound 2, renieramycin T] | 51 ± 0.08 | 163 ± 24.2 | 72.8 ± 2.88 | 84 ± 3.63 | 89.2 ± 4.29 | – | – | – | – | – | –
14 | C/C=C(/C)C(=O)OC[C@H]1C2=C(C[C@H]3[C@H]4C5=C(C[C@@H]([C@H](C#N)N13)N4C)C(=O)C(C)=C(OC)C5=O)C(=O)C(C)=C(OC(=O)CC)C2=O [Compound 4a, 7-O-(propanoyl) ester derivative of renieramycin S] | 77.4 ± 9.9 | > 250 | 99.87 ± 0.91 | 164 ± 4.16 | 230 ± 22.7 | 3 | fivefold | – | – | – | –
15 | C/C=C(/C)C(=O)OC[C@H]1c2c(c(OC(=O)c3ccc[nH]3)c(C)c3c2OCO3)C[C@H]2[C@H]3C4=C(C[C@@H]([C@H](C#N)N12)N3C)C(=O)C(C)=C(OC)C4=O [Compound 3o] | 50 ± 7.81 | 220 ± 29.7 | 56.9 ± 2.66 | 58.3 ± 3.56 | 65.2 ± 1.52 | – | – | – | – | – | –
16 | C/C=C(/C)C(=O)OC[C@H]1c2c(c(OC(=O)c3ccc4ccccc4n3)c(C)c3c2OCO3)C[C@H]2[C@H]3C4=C(C[C@@H]([C@H](C#N)N12)N3C)C(=O)C(C)=C(OC)C4=O [Compound 3i, 5-O-(2-quinolinecarbonyl) ester] | 8.77 ± 1.94 | 151 ± 19 | 36.5 ± 1.82 | 43.3 ± 4.29 | 28 ± 3.76 | – | – | – | – | – | –
17 | C/C=C(/C)C(=O)OC[C@H]1c2c(c(OC(=O)/C=C/c3cccnc3)c(C)c3c2OCO3)C[C@H]2[C@H]3C4=C(C[C@@H]([C@H](C#N)N12)N3C)C(=O)C(C)=C(OC)C4=O [Compound 3k] | 8.36 ± 2.31 | 114 ± 13.2 | 36.3 ± 2.06 | 38.8 ± 7.25 | 9.64 ± 0.93 | – | – | – | – | – | –
18 | C/C=C(/C)C(=O)OC[C@H]1c2c(c(OC(=O)c3cccs3)c(C)c3c2OCO3)C[C@H]2[C@H]3C4=C(C[C@@H]([C@H](C#N)N12)N3C)C(=O)C(C)=C(OC)C4=O [Compound 3n, 5-O-(2-thiophenecarbonyl) ester] | 68.6 ± 6.25 | > 250 | 137 ± 6.3 | 123 ± 4.99 | 139 ± 6.16 | – | – | – | – | – | –
